We go through 6 molecules from patent US10849322B2, “Use of hibiscus acid and derivatives thereof as antimicrobials against antibiotic-resistant and non-antibiotic-resistant microorganisms” (UNIVERSIDAD AUTONOMA DEL ESTADO DE HIDALGO, priority 2015, dated 2020).

Structures are written as SMILES.

The test system of assay [1] is L. monocytogenes scott A. Put plainly: Disc diffusion, zones of inhibition in culture medium. In kind it is cell-based, Listeria monocytogenes. To be noted: J = L. monocytogenes scott A, average of four repetitions. As for the experimental part: (§1) […]. Select mutants resistant to the antibiotic rifampicin (R+) to eliminate the interference of the native microbial flora of Hibiscus acid and derivatives (Castro-Rosas and Escartín, 2000). Maintain the R+ strains at 4-7° C. on blood-based agar (ABS, Merck®, Germany) with biweekly transfers, activating tripticasein soy broth (CST, Bioxon®, Mexico) with incubation at 35° C./24 h.
(§2) Prepare cultures of each one of the R+ study bacteria in tubes of 13×100 mm containing 3 ml of Tripticasein Soy Broth (TSB) incubating at 35° C. for 24 hours. Subsequently, centrifuge the cultures at 3500 rpm for 20 minutes. Then discard the supernatant and resuspend the cell pack by adding 3 ml of sterile isotonic saline solution (ISS) and agitate in vortex for 10 seconds. Repeat the previous procedure two more times. Subsequently, dilute each culture of the washed strains in a decimal proportion with ISS.
(§3) From the dry fractions (collections) prepare aqueous solutions using a solution of Polysorbate 80:water that was previously prepared in a ratio of 20:80. To this solution of polysorbate 80:water, add each dry fraction or chromatographic collection separately in a 1:9 ratio, in clean jars.
(§4) Separately, place 100 μL of the first dilution of the washed and diluted cultures on boxes of Agar Soya Tripticasa (AST) supplemented with 100 mg/L of the antibiotic rifampin; distribute the inoculum over the entire surface of the agar using the surface extension technique. Place on the inoculated boxes, separately, filter paper discs of a size of 0.5 cm and on the disks place aliquots of 10 μL of the solution of the chromatographic fractions. Perform four repetitions for each treatment. After the aliquots of the fractions or collections are absorbed by the agar, incubate the culture boxes at 35° C. for 24 hours.
(In general: Agar diffusion results depend on both activity and mobility in agar.)

Assay [2] has as its system Shigella flexneri. The assay is described as above. The format is cell-based. To be noted: H = Shigella flexneri, average of four repetitions. As for the experimental part: as §1, §2, §3, §4
In assay [3] the test system is Shigella sonnei. Described as above. In kind it is cell-based. To be noted: G = Shigella sonnei, average of four repetitions. As for the experimental part: as §1, §2, §3, §4
The subject of assay [4] is Pseudomonas aeruginosa. Described as above. The format is cell-based. As to conditions: column L, average of four repetitions. The procedure: as §1, §2, §3, §4
The test system of assay [5] is Salmonella choleraesuis. Described as above. As to conditions: column F, average of four repetitions. The format is cell-based. The procedure:
as §1, §2, §3, §4

The subject of assay [6] is Staphylococcus aureus. The assay is described as above. To be noted: K = Staphylococcus aureus, average of four repetitions. In kind it is cell-based. As for the experimental part: as §1, §2, §3, §4
Assay [7] has as its system Listeria monocytogenes. The description is as above. In kind it is cell-based. To be noted: I = Listeria monocytogenes, average of four repetitions. The procedure:
as §1, §2, §3, §4

The subject of assay [8] is Salmonella Typhimurium R+. The description is as above. The format is cell-based. To be noted: E = Salmonella Typhimurium R+ (resistant to 14 antibiotics), average of four repetitions. As for the experimental part:
as §1, §2, §3, §4

The test system of assay [9] is V. cholerae O1. Described as above. The format is cell-based. To be noted: M = V. cholerae O1, average of four repetitions. The procedure: as §1, §2, §3, §4
Assay [10] has as its system E. coli enterotoxigenic. The description is as above. In kind it is cell-based, Escherichia coli. To be noted: C = E. coli enterotoxigenic, average of four repetitions. The procedure:
as §1, §2, §3, §4

Assay [11] concerns E. coli enteroinvasive. The assay is described as above. The format is cell-based, Escherichia coli. As to conditions: B = E. coli enteroinvasive, average of four repetitions. The procedure: as §1, §2, §3, §4
Assay [12] concerns E coli O157H7. Described as above. The format is cell-based, Escherichia coli. To be noted: A = E coli O157H7, average of four repetitions. As for the experimental part: as §1, §2, §3, §4
The test system of assay [13] is E. coli enteropathogenic. The description is as above. In kind it is cell-based, Escherichia coli. As to conditions: D = E. coli enteropathogenic, average of four repetitions. As for the experimental part:
as §1, §2, §3, §4

Assay [14] deals with 13 different microorganisms. The assay can be described thus: Antimicrobial effect in culture medium, whole panel. In kind it is cell-based. As to conditions: against the control; all study microorganisms. As for the experimental part:
as §1, §2
From the dry fractions (collections) prepare aqueous solutions using a solution of Polysorbate 80:water that was previously prepared in a ratio of 20:80. To this solution of polysorbate 80:water, add each dry fraction or chromatographic collection separately in a 1:9 ratio, in clean jars. […]

Consider `COC(=O)[C@H]1OC(=O)C[C@]1(O)C(=O)OC` [Compound 3, di-ester methyl of hibiscus acid], for which the Zones of inhibition in [1], in assay [2], in assay [3], in assay [4], in assay [5] and in [6] was 8 mm in each case. The Zones of inhibition in assay [7] is given as 8 mm; in assay [8] it was 8 mm; in [9] it was 10 mm; in assay [10], 8 mm; in [11], 8 mm; in assay [12] it was 8 mm. In [13], the Zones of inhibition amounted to 8 mm.
As to `CCOC(=O)[C@@]1(O)CC(=O)O[C@@H]1C(=O)O` [Compound 4, mono ester ethyl of hibiscus acid], the Zones of inhibition in assay [1], in assay [2], in assay [3], in assay [4], in assay [5] and in [6] was 6 mm in each case. In addition, the Zones of inhibition in [7] is recorded as 6 mm; in assay [8] it was 6 mm; in [9] it was 8 mm; in [10] it was 6 mm; in assay [11], 6 mm; in assay [12], 6 mm. The same molecule displayed a Zones of inhibition in assay [13] of 6 mm.
As to `O=C1C[C@](O)(C(=O)O)[C@@H](C(=O)O)O1` [Compound 1, hibiscus acid], the “antimicrobial effect (zone of inhibition, in words)” value in assay [14] is “maximum zone of inhibition”. Besides, the Zones of inhibition in assay [1], in [2], in assay [3], in assay [4], in [5] and in assay [6] was 10 mm in each case. In addition, the Zones of inhibition in [7] was 10 mm; in assay [8], 12 mm; in assay [9], 14 mm; in assay [10], 10 mm; in assay [11] it was 12 mm; in [12] it was 10 mm. In assay [13], this molecule gave a Zones of inhibition of 11 mm.
For the molecule `CCOC(=O)[C@H]1OC(=O)C[C@]1(O)C(=O)OCC` [Compound 5, di-ester ethyl of hibiscus acid], the Zones of inhibition in assay [1], in assay [2], in [3], in assay [4], in assay [5] and in assay [6] was 6 mm throughout. Also, the Zones of inhibition in assay [7] is given as 6 mm; in [8], 6 mm; in assay [9], 8 mm; in assay [10], 6 mm; in assay [11], 6 mm; in assay [12] it was 6 mm. Also, the Zones of inhibition in [13] was determined as 6 mm.
Consider `COC(=O)[C@@]1(O)CC(=O)O[C@@H]1C(=O)O` [Compound 2, mono ester methyl of hibiscus acid], for which the Zones of inhibition in assay [1] is listed as 8 mm; in assay [2], 10 mm; in assay [3] it was 10 mm; in assay [4], 8 mm; in [5], 10 mm; in assay [6], 10 mm. Further, the Zones of inhibition was found to be 8 mm in assay [7]; 10 mm in assay [8]; 12 mm in [9]; 10 mm in assay [10]; 10 mm in assay [11]; 10 mm in assay [12]. The Zones of inhibition in assay [13] was 10 mm.
As to `CCOC(=O)C[C@](O)(C(=O)OCC)[C@@H](O)C(=O)OCC` [Compound 6, tri-ethyl ester of hydroxycitric acid], in assay [14], the “antimicrobial effect (zone of inhibition, in words)” value is reported as “lowest”. Further, the Zones of inhibition in [1], in assay [2], in [3], in [4], in assay [5] and in assay [6] was 5 mm each time. The Zones of inhibition came to 5 mm in assay [7]; 5 mm in assay [8]; 6 mm in [9]; 5 mm in assay [10]; 5 mm in assay [11]; 5 mm in [12]. This molecule also showed a Zones of inhibition in assay [13] of 5 mm.
